According to patent US20060122181A1, “Heteroaromatic pentacyclic compound and medicinal use thereof” (Japan Tobacco Inc., priority 2003, published 2006):

Compared with `CN(Cc1ccc(C2CCC(F)CC2)cc1)c1ccc(-c2csc(CN(CC(=O)O)Cc3ccccc3)n2)cc1` (stereo not shown) [Example 3-33], `CC(C)Cc1ccc(CN(C)c2ccc(-c3csc(CN(CC(=O)O)Cc4ccccc4)n3)cc2)cc1` [Example 3-39] is higher in melting point: 146 to 147 °C for the first, 149 to 151 °C for the second.

First: CCCC(CCC)c1ccc(COc2ccc(-c3csc(CN(CC(=O)O)C(=O)c4ccccc4)n3)cc2)cc1 [Example 3-22]
Second: CCCC(CCC)c1ccc(OCc2ccc(-c3csc(CN(CC(=O)O)C(=O)COc4ccc(C)cc4)n3)cc2)cc1 [Example 1-130]
The melting point of the first is lower: 141 to 144 °C for the first, 170 to 172 °C for the second.

First: CCCC(CCC)c1ccc(CN(CC)C(=O)c2ccc(-c3csc(CN(CC(=O)O)Cc4ccccc4)n3)cc2)cc1 [Example 1-57]
Second: CCCC(CCC)c1ccc(CN(C)C(=O)c2ccc(-c3csc(CN(CC(=O)O)Cc4ccccc4)n3)cc2)cc1 [Example 1-56]
The melting point of the first is lower: 59 to 65 °C for the first, 65 to 71 °C for the second.

Compared with `CCCC(CCC)c1ccc(OCc2ccc(-c3csc(CN(C)c4cccc(C(=O)O)n4)n3)cc2)cc1` [Example 1-143], `CCCC(CCC)c1ccc(CN(C)c2ccc(-c3csc(COc4ccc(C(=O)O)cc4)n3)cc2)cc1` [Example 3-95] is higher in melting point: 123 to 125 °C for the first, 175 to 177 °C for the second.

First: Cc1ccc(OCc2ccc(-c3csc(CN(CC(=O)O)Cc4ccccc4)n3)cc2)c(C(C)(C)C)c1 [Example 1-43]
Second: Cc1ccc(OCc2ccc(C(F)(F)F)cc2)c(-c2csc(CN(CC(=O)O)Cc3ccccc3)n2)c1 [Example 3-8]
The melting point of the first is lower: 146 °C for the first, 168 to 170 °C for the second.

First: CCOC(=O)c1ccc(OCc2nc(-c3nc4cc(C(CC)CC)ccc4n3Cc3ccc(C(C)C)cc3)cs2)cc1 [Example 3-128]
Second: CCC(CC)c1ccc2c(c1)nc(-c1csc(COc3ccc(C(=O)O)cc3)n1)n2Cc1ccc(C(C)C)cc1 [Example 3-129]
The melting point of the first is lower: 106 to 107 °C for the first, 139 to 142 °C for the second.

First: CCCC(CCC)N(Cc1ccc(-c2csc(COc3ccc(C(=O)O)cc3)n2)cc1)c1ccc(C(C)C)cc1 [Example 1-9]
Second: CCC(CC)N(Cc1ccc(-c2csc(COc3ccc(C(=O)O)cn3)n2)cc1)c1ccc(C(C)C)cc1 [Example 1-11]
The melting point of the first is higher: 166 to 168 °C for the first, 155 to 157 °C for the second.

First: CCCC(CCC)c1ccc(N(Cc2ccc(-c3ccc(COc4cncc(C(=O)O)c4)s3)cc2)C(C)C)cc1 [Example 4-18]
Second: CCCC(CCC)c1ccc(OCc2ccc(-c3csc(COc4cncc(C(=O)O)c4)c3)cc2)cc1.Cl
The melting point of the first is lower: 93 to 98 °C for the first, 170 to 173 °C for the second.

Compared with `CCCCOc1ccc(S(=O)(=O)N(CC)c2ccc(-c3csc(CN(CC(=O)O)Cc4ccccc4)c3)cc2)cc1` [Example 4-103], `CCCC(CCC)c1ccc(OCc2ccc(-c3csc(CN(CC(=O)O)CC(=O)Nc4ccccc4)c3)cc2)cc1` [Example 4-16] is higher in melting point: 120.7 to 123.3 °C for the first, 155 °C for the second.

Compared with `CCCC(CCC)c1ccc(CN(C)c2ccc(-c3csc(CSc4ccc(C(=O)O)cc4)n3)cc2)cc1` [Example 3-96], `CCCC(CCC)c1ccc(COc2ccc(-c3csc(CSc4ccc(C(=O)O)cc4)n3)cc2)cc1` [Example 3-3] is lower in melting point: 126 to 127 °C for the first, 117 to 118 °C for the second.

Compared with `CCCC(CCC)c1ccc(Cn2c(-c3csc(CN4CCN(c5cccc(C(=O)O)c5)CC4)n3)nc3ccccc32)cc1` [Example 1-170], `CCCC(CCC)c1ccc(Cn2c(-c3csc(CN4CCc5ccc(C(=O)O)cc5C4)n3)nc3ccccc32)cc1` [Example 1-169] is higher in melting point: 179.8 to 181.2 °C for the first, 189.2 to 190.3 °C for the second.

First: CC(NCc1nc(-c2ccc(N(C)Cc3ccc(C4CCCCC4)cc3)cc2)cs1)C(=O)O (stereo not shown) [Example 3-78]
Second: CN(CC(=O)O)Cc1nc(-c2ccc(N(C)Cc3ccc(C4CCCCC4)cc3)cc2)cs1 [Example 3-80]
The melting point of the first is lower: 135 to 138 °C for the first, 152 to 155 °C for the second.

First: CCC(CC)c1ccc(COc2ccc(-c3csc(CN(CC(=O)O)Cc4ccc(Cl)cc4)n3)cc2)cc1 [Example 3-17]
Second: CCC(CC)c1ccc(COc2ccc(-c3csc(CN(CC(=O)O)Cc4ccc(C(F)(F)F)cc4)n3)cc2)cc1 [Example 3-16]
The melting point of the first is higher: 154 to 157 °C for the first, 136 to 138 °C for the second.

First: CCCC(CCC)c1ccc(OCc2ccc(-c3csc(Cn4nc(C)cc4C(=O)O)n3)cc2)cc1 [Example 1-176]
Second: CCCC(CCC)c1ccc(OCc2ccc(-c3csc(Cn4nc(C(=O)O)cc4C)n3)cc2)cc1 [Example 1-177]
The melting point of the first is lower: 141 to 143 °C for the first, 185 to 194 °C for the second.

Compared with `CCC(CC)c1ccc(N(Cc2ccc(-c3csc(COc4cc(OC)cc(C(=O)O)c4)n3)cc2)C(C)C)cc1` [Example 1-63], `CCC(CC)CN(Cc1ccc(-c2csc(COc3cncc(C(=O)O)c3)n2)cc1)c1ccc(C(C)C)cc1` [Example 1-74] is higher in melting point: 131 °C for the first, 181 °C for the second.

First: CCCC(CCC)c1ccc(COc2ccc(C)cc2-c2csc(CN(C)S(=O)(=O)c3ccc(C(=O)O)cc3)n2)cc1 [Example 3-6]
Second: CCCC(CCC)c1ccc(COc2ccc(C)cc2-c2csc(CN(C)c3ccc(C(=O)O)cc3)n2)cc1 [Example 3-7]
The melting point of the first is lower: 130 to 132 °C for the first, 184 to 187 °C for the second.

Compared with `CC(C)Cc1ccc(CN(C)c2ccc(-c3csc(CN(C)C(Cc4ccccc4)C(=O)O)n3)cc2)cc1` (stereo not shown) [Example 3-85], `CC(C)Cc1ccc(CN(C)c2ccc(-c3csc(CN(CC(=O)O)C(=O)c4ccccc4)n3)cc2)cc1` [Example 3-61] is higher in melting point: 138 to 139 °C for the first, 143 to 145 °C for the second.

Compared with `CCC(CC)c1ccc(N(Cc2ccc(-c3csc(N(C)Cc4ccc(C(=O)O)cc4)n3)cc2)C(C)C)cc1` [Example 1-20], `CCC(CC)c1ccc(N(Cc2ccc(-c3csc(CN(C)c4ccc(OCC(=O)O)c(C(=O)O)c4)n3)cc2)C(C)C)cc1` [Example 1-124] is lower in melting point: 150 to 153 °C for the first, 124 °C for the second.

First: CN(Cc1ccc(C2CCCCC2)cc1)c1ccc(-c2csc(CN3CCN(CC(=O)O)CC3)n2)cc1 [Example 3-111]
Second: CN(Cc1ccc(C2CCCCC2)cc1)c1ccc(-c2csc(CN3CCCC(C(=O)O)C3)n2)cc1 (stereo not shown) [Example 3-66]
The melting point of the first is higher: 190 to 191 °C for the first, 176 to 180 °C for the second.

First: CCCC(CCC)c1ccc(CN(C)c2ccc(-c3csc(CN(CC(=O)[O-])C(=O)c4ccc(C(C)C)cc4)n3)cc2)cc1.[Na+] [Example 3-63]
Second: CCCC(CCC)c1ccc(CN(CC(=O)O)Cc2nc(-c3ccc(N(C)Cc4ccccc4)cc3)cs2)cc1 [Example 3-48]
The melting point of the first is higher: 183 to 188 °C for the first, 137 to 140 °C for the second.

First: O=C(O)CN(Cc1ccccc1)Cc1cc(-c2ccc(COc3cc(Cl)cc(Cl)c3)cc2)cs1 [Example 4-105]
Second: CCC(CC)c1ccc(COc2ccc(-c3csc(CN(CC(=O)O)Cc4ccccc4)n3)cc2)cc1 [Example 3-11]
The melting point of the first is higher: 202.3 to 204.2 °C for the first, 144 to 146 °C for the second.

First: CN(Cc1ccc(-c2csc(N(C)Cc3ccc(C(=O)O)cc3)n2)cc1)c1ccc(C2CCCCC2)cc1 [Example 1-18]
Second: CN(Cc1ccc(C2CCCCC2)cc1)c1ccc(-c2csc(CN(C)c3ccc(C(=O)O)cn3)n2)cc1 [Example 3-84]
The melting point of the first is lower: 190 to 192 °C for the first, 226 to 228 °C for the second.

First: CN(Cc1ccccc1)c1ccc(-c2csc(CN(CC(=O)O)Cc3ccc4ccccc4n3)n2)cc1 [Example 3-55]
Second: CN(Cc1ccccc1)c1ccc(-c2csc(CN(CC(=O)O)Cc3cccc4ccccc34)n2)cc1 [Example 3-54]
The melting point of the first is higher: 144 to 147 °C for the first, 78 to 83 °C for the second.

First: CCCC(CCC)c1ccc(Cn2cc(-c3csc(CN4C[C@H](O)C[C@H]4C(=O)O)n3)c3ccccc32)cc1 [Example 1-180]
Second: CCCC(CCC)c1ccc(COc2ccc(Cl)cc2-c2csc(CN(CC(=O)O)Cc3ccccc3)n2)cc1 [Example 3-13]
The melting point of the first is lower: 105 to 107 °C for the first, 130 to 131 °C for the second.

Compared with `CC(C)CN(Cc1ccc(-c2csc(CN(CC(=O)O)S(=O)(=O)c3ccccc3)n2)cc1)c1ccc(C(C)(C)C)cc1` [Example 1-31], `CC(C)CN(Cc1ccc(-c2csc(CN(CC(=O)O)Cc3ccccc3)n2)cc1)c1ccc(C(C)(C)C)cc1` [Example 1-23] is lower in melting point: 168.5 °C for the first, 133 °C for the second.

First: CCCC(CCC)c1ccc(N(C)Cc2ccc(-c3csc(CN(C)S(=O)(=O)CCCC(=O)[O-])n3)cc2)cc1.[Na+] [Example 1-16]
Second: CCCC(CCC)c1ccc(OCc2ccc(-c3csc(CN(C)c4ccc(OCC(=O)O)c(C(=O)O)c4)n3)cc2)cc1 [Example 1-125]
The melting point of the first is higher: 217 to 220 °C for the first, 122 °C for the second.

First: CCC(CC)c1ccc2nc(-c3csc(COc4ccc(C(=O)O)cc4)n3)n(Cc3ccc(C(C)=O)cc3)c2c1 [Example 3-131]
Second: CCC(CC)c1ccc2c(c1)nc(-c1csc(COc3ccc(C(=O)O)cc3)n1)n2Cc1ccc(C(C)=O)cc1 [Example 3-130]
The melting point of the first is higher: 138 to 139 °C for the first, 127 to 132 °C for the second.

First: CCCC(CCC)c1ccc(COc2ccc(-c3csc(COc4cncc(C(=O)O)c4)n3)cc2OC)cc1 [Example 3-115]
Second: CCCC(CCC)c1ccc(N(Cc2ccc(-c3csc(COc4cc(C(=O)O)ccc4NC(C)=O)n3)cc2)C(C)C)cc1 [Example 1-108]
The melting point of the first is higher: 156 to 158 °C for the first, 129 to 131 °C for the second.

First: CC(C)CCC1(C(=O)O)CCN(Cc2nc(-c3ccc(N(C)Cc4ccc(C5CCCCC5)cc4)cc3)cs2)CC1 [Example 3-68]
Second: CCC(CC)c1ccc2c(c1)nc(-c1csc(COc3ccc(C(=O)O)cc3)n1)n2CC1CCCCC1 [Example 3-132]
The melting point of the first is higher: 233 to 235 °C for the first, 176 to 183 °C for the second.

First: CCC(CC)c1ccc(COc2ccc(-c3csc(CN(CC(=O)O)Cc4cc(C)cc(C)c4)n3)cc2)cc1 [Example 3-18]
Second: CCCC(CCC)c1ccc(OCc2ccc(-c3csc(CN(CC(=O)O)CC(=O)Nc4cccnc4)n3)cc2)cc1 [Example 1-96]
The melting point of the first is lower: 114 to 119 °C for the first, 162.5 °C for the second.

Compared with `CCCC(CCC)c1ccc(OCc2ccc(-c3ccc(C(=O)N(CC(=O)O)Cc4cccnc4)s3)cc2)cc1` [Example 4-47], `CCCC(CCC)c1ccc(OCc2ccc(-c3ccc(CN(CC(=O)OCC)Cc4nc5ccccc5n4C)s3)cc2)cc1` [Example 4-83] is lower in melting point: 153 to 156 °C for the first, 82 to 84 °C for the second.

Work on `CCCC(CCC)c1ccc(COc2ccc(-c3csc(CN(CC(=O)O)Cc4csc(C)n4)n3)c(C)c2)cc1` [Example 3-122] yielded a melting point of 98 to 103 °C.

With `CN(c1ccc(C(=O)O)cc1)c1nc(-c2ccc(C(=O)Nc3ccc(C4CCCCC4)cc3)cc2)cs1` [Example 1-52] the melting point was 250 °C (dec.).
